# Results taken from patent publication US20260159503A1, “1,2,3-TRIAZOLE LINKER-CONTAINING COMPOUNDS” (HIGH POINT UNIVERSITY, priority 2024, published 2026).
# What was measured:
# human D3R = biological target: T1, human D3R (Homo sapiens, UniProt P35462); test: DiscoverX PathHunter β-arrestin recruitment assay, D3R; type: cell-based; settings: triazole; antagonist; read-out: potency, β-arrestin recruitment at the D3R
# T1 construct: host or cells: CHO-K1
# Description: (§1) Luminescence was measured on a Hamamatsu FDSS μCell reader.
# (§2) Efficacy/antagonist % (Ant. %) values were obtained from nonlinear regression of meaned data obtained from at least three independent experiments with triplicate measures. Values are presented as means±SEM.
# human D2R long isoform = biological target: T2, human D2R long isoform (Homo sapiens, UniProt P14416); test: DiscoverX PathHunter β-arrestin recruitment assay, D2R; type: cell-based; settings: triazole; antagonist; read-out: potency, β-arrestin recruitment at the D2R
# T2 construct: host or cells: CHO-K1
# Description: as §1, §2
# T2 sequence (P14416 whole entry, canonical isoform): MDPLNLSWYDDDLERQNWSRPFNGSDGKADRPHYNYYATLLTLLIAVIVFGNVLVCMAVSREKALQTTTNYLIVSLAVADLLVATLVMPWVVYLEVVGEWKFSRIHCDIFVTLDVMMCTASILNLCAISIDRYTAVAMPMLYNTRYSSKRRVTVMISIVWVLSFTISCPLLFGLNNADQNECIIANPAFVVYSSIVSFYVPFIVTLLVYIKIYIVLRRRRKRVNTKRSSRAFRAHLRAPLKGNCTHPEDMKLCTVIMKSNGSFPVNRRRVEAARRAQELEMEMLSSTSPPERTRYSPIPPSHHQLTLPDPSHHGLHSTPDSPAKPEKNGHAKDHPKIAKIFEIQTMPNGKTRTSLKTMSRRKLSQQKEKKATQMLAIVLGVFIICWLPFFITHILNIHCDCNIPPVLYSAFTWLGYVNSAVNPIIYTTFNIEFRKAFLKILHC
# T1 sequence (P35462 whole entry): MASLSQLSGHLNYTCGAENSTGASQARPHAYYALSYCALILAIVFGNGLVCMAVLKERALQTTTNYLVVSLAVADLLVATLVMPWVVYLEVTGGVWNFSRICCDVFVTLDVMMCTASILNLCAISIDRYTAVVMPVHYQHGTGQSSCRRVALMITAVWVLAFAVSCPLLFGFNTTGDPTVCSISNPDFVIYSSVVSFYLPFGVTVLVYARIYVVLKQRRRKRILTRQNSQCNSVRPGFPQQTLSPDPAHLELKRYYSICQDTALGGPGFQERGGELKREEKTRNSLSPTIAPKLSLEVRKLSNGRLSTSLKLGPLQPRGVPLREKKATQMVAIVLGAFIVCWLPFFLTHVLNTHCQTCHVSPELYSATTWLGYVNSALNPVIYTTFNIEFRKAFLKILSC
compound,measurement,setting,value
"Cc1cccc(-n2cc(CN3CCC(c4ccccc4)CC3)nn2)c1 [Compound 14, 4-phenyl-1-((1-(m-tolyl)-1H-1,2,3-triazol-4-yl)methyl)piperidine]",IC50,human D3R,> 6 µM
same,IC50,human D2R long isoform,> 6 µM
